Earlier results, collected in patent US20230150906A1, “DESOXYSCALINE DERIVATIVES WITH MODIFIED MESCALINE-LIKE ACTION” (Mind Medicine, Inc., priority 2021, published 2023).
Entries after “also recorded” stand apart in the source; their conditions may differ.

Experiments:
5-HT2A receptor = 5-HT2A receptor (Homo sapiens, UniProt P28223)
D2 receptors = D2 receptors (Homo sapiens, UniProt P14416)
5-HT transporter (SERT) = 5-HT transporter (SERT) (Homo sapiens, UniProt P31645)
[1] = molecular target: serotonin 5-HT2A receptor (Homo sapiens, UniProt P28223)
[2] = humans

Sequence of 5-HT2A receptor (P28223 whole entry): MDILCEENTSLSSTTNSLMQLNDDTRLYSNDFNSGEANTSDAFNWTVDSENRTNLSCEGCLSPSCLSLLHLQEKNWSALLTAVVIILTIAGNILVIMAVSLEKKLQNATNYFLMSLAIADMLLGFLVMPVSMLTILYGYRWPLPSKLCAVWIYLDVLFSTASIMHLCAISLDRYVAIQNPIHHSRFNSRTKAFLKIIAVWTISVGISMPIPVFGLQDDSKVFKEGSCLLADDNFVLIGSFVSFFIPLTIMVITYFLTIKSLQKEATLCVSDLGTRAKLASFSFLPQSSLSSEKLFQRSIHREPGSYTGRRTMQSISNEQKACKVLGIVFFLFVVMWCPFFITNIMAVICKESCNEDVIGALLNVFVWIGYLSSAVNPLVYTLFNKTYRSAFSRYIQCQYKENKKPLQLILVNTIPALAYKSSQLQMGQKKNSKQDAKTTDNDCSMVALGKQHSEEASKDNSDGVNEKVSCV
Sequence of 5-HT transporter (SERT) (P31645 whole entry, species assumed): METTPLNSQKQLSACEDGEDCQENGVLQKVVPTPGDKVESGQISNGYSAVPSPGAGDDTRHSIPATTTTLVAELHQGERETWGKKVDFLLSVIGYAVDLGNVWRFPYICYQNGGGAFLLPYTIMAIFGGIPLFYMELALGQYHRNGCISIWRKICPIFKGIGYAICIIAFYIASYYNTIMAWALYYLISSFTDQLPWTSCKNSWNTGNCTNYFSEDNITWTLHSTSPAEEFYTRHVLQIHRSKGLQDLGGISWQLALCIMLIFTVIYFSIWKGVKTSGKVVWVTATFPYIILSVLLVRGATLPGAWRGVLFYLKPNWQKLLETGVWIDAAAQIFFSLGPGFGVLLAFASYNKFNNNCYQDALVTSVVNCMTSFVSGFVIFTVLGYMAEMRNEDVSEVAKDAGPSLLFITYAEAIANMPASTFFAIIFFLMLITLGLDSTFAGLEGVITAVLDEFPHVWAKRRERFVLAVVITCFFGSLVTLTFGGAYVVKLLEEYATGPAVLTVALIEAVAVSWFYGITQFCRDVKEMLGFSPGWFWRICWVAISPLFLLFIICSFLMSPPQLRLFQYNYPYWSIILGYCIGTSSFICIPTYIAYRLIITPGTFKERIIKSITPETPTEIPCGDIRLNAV
Sequence of D2 receptors (P14416 whole entry): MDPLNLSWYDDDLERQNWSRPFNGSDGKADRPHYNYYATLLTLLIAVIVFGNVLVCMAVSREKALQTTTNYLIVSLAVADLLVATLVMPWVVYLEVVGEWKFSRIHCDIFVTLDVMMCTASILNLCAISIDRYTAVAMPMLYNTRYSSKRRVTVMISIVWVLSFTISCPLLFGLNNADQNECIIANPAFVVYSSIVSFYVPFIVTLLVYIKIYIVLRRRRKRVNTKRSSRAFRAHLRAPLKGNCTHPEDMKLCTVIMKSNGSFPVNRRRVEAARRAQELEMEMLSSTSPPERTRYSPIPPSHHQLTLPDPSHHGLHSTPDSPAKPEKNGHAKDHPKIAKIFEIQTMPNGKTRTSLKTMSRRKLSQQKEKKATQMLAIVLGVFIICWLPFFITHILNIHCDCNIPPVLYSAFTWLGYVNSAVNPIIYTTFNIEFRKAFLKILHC
Sequence of serotonin 5-HT2A receptor (P28223 whole entry): as the sequence (P28223 whole entry) above

## COc1cc(CCN)cc(OC)c1C [DESOXY, 3,5-dimethoxy-4-methylphenethylamine]
humans; human
  psychoactive effects in human: has shown psychoactive effects in human

## CN(C)CCc1c[nH]c2ccccc12 [DMT, N,N-dimethyltryptamine]
5-HT2A receptor
  activity at the 5-HT2A receptor (agonism / stimulation): agonists

## CCN(CC)C(=O)[C@@H]1C=C2c3cccc4[nH]cc(c34)C[C@H]2N(C)C1 [LSD, lysergic acid diethylamide]
D2 receptors
  activity at D2 receptors: has activity
5-HT2A receptor
  activity at the 5-HT2A receptor (agonism / stimulation): agonists; also recorded: potently stimulates

## CN(C)CCc1c[nH]c2cccc(O)c12 [Psilocin, psilocin]
5-HT transporter (SERT)
  interaction with the SERT: inhibits
5-HT2A receptor
  activity at the 5-HT2A receptor (agonism / stimulation): stimulates

## COc1cc(CCN)cc(OC)c1OC [mescaline]
D2 receptors
  affinity for D2 receptors: no affinity
[1]
  5-HT2A receptor ligand strength: very weak
5-HT transporter (SERT)
  interaction with the SERT: do not interact
humans; humans
  dose needed to induce a full psychedelic experience: 200 to 800 mg
humans; humans, psychoactive doses
  time of peak of subjective effects: 4 h
  time until subjective effects appear: ≤ 30 min
humans; humans, psychoactive doses, dose-dependent
  duration of subjective effects: 10 to 16 h
[2]
  plasma half-life: approximately 6 hours
5-HT2A receptor
  activity at the 5-HT2A receptor (agonism / stimulation): agonists
